Assay results published in patent publication US12533353B2, “Methods of treatment of cancer comprising CDC7 inhibitors” (CARNA BIOSCIENCES, INC., priority 2018, dated 2026).
Where two headings read alike, the source gives them in different places.

Columns and labels:
MOLM-13 cells [1] = assay: Co-treatment combination screen, synergy score, ATPlite; type: cell-based, human; settings: simultaneous combination treatment, 72 hours
Procedure: (§1) The combination screen was performed using the co-treatment dosing schedule for SRA141 and the partner compound. Both enhancee (SRA141) and enhancer (partner compound) were added at time zero (0 h). Cells were exposed to SRA141 and the enhancer for the entire 72-hour treatment time. All data points were collected via automated processes and were subject to quality control and analyzed using proprietary software.
(§2) The Growth Inhibition (GI) was utilized as a measure of cell growth. GI percentages are calculated by applying the following test and equation: […]
(§3) This formula is derived from the Growth Inhibition calculation used in the National Cancer Institute's NCI-60 high throughput screen. […] These GI calculations were used in all single agent and combination data analysis for the combination screen.
(§4) To measure combination effects in excess of Loewe additivity, a scalar measure was used to characterize the strength of synergistic interaction termed the Synergy Score. The Synergy Score is calculated as: Synergy Score=log fX log fYΣ max(0,Idata)(Idata−ILoewe)
(§5) The fractional inhibition for each component agent and combination point in the matrix is calculated relative to the median of all vehicle-treated control wells. The Synergy Score equation integrates the experimentally-observed activity volume at each point in the matrix in excess of a model surface numerically derived from the activity of the component agents using the Loewe model for additivity. Additional terms in the Synergy Score equation (above) are used to normalize for various dilution factors used for individual agents and to allow for comparison of synergy scores across an entire experiment. The inclusion of positive inhibition gating or an Idata multiplier removes noise near the zero effect level, and biases results for synergistic interactions at that occur at high activity levels. Combinations with higher maximum Growth Inhibition (GI) effects or those which are synergistic at low concentrations will have higher Synergy Scores. Those combinations with Synergy Scores that statistically supersede baseline self-cross values can be considered synergistic. The magnitude of GI effects may be linked to the growth rate of cells which varies for each cell line examined.
(§6) Loewe Volume Score is used to assess the overall magnitude of the combination interaction in excess of the Loewe additivity model. Loewe Volume is particularly useful when distinguishing synergistic increases in a phenotypic activity (positive Loewe Volume) versus synergistic antagonisms (negative Loewe Volume).

[2] = test system: Colo-205 colorectal adenocarcinoma cells; assay: Sequential treatment: SRA141 pre-treatment then partner agent, ATPlite; type: cell-based, human
MOLM-13 cells [3] = assay: as above; type: cell-based, human; settings: 200 nM SRA141 pre-treatment 48 hrs compared to DMSO pre-treatment
Procedure: Flasks of MOLM-13 cells were pre-treated with SRA141 (1 μM and 200 nM) and DMSO control for 48 hrs; cells were washed and seeded into 384-well plates; plates left to incubate for 6 hrs, followed by treatment with trametinib or bexarotene six hours after plating as single agents. After 72 hrs, ATP levels were measured using ATPlite.

MOLM-13 = assay: Combination of SRA141 with targeted agents, CTG and CTBlue, 72 hours, Bliss CI; type: cell-based; settings: for combination effect with SRA141: MOLM-13, 72 hours
Procedure: The anti-apoptotic gene BCL-2 was inhibited in Molm-13 cells by treatment with 0.1 μM ABT-199 as previously described (see Examples 6 and 24). Cells were treated with 0.1 μM ABT-199 and SRA141 for 72 hours at SRA141 concentrations of 0.04 μM to 3.30 μM.

MV411 = assay: as above; settings: MV411, 72 hours
COLO-205 cells = assay: Co-treatment combination screen, synergy score, ATPlite; type: cell-based, human; settings: simultaneous combination treatment, 72 hours
Procedure: as §1, §2, §3, §4, §5, §6

Colo-205 = assay: Combination of SRA141 with targeted agents, CTG and CTBlue, 72 hours, Bliss CI; settings: Colo-205, 72 hours
SW620 = assay: as above; settings: SW620, 72 hours
EOL-1 = assay: AML 3D culture, 5 days; type: cell-based; settings: EOL-1 cell line
Procedure: (§7) The activity of SRA141 was investigated in in vitro and ex vivo three-dimensional (3D) cultures prepared from three AML cell lines (EOL-1, Molm-16 and MV-4-11) and three AML PDX models (AM5512, AM7440 and AM7577), respectively. Tumor cultures were treated with SRA141 (0.08 to 33 μM) for 5 days.

MV-4-11 = assay: AML 3D culture, 5 days; type: cell-based; settings: MV-4-11 cell line
Procedure: as §7

Molm-16 = assay: AML 3D culture, 5 days; type: cell-based; settings: Molm-16 cell line
Procedure: as §7

AM5512 = assay: AML PDX ex vivo 3D culture, 5 days; type: cell-based
Procedure: as §7

AM7440 = assay: AML PDX ex vivo 3D culture, 5 days; type: cell-based
Procedure: as §7

AML-blast progenitors = assay: 3D growth in methylcellulose matrix, 14 days; type: cell-based
Procedure: (§8) The anti-proliferative activity of SRA141 (0.3-5 μM) was also evaluated in additional 3D growth studies conducted in a methylcellulose growth matrix using normal human myeloid (n=3) and AML-blast progenitors incubated for 14 days.

[4] = test system: normal human myeloid progenitors (normal bone marrow); assay: 3D growth in methylcellulose matrix, 14 days; type: cell-based
Procedure: as §8

AM7577 = assay: AML PDX ex vivo 3D culture, 5 days; type: cell-based
Procedure: as §7

Q: How did the “synergy with SRA141” value (MOLM-13 cells [1]) turn out when `Cn1ncnc1[C@H]1c2n[nH]c(=O)c3cc(F)cc(c23)N[C@@H]1c1ccc(F)cc1` [BMN673] was run?
A: strong synergies

Q: With `CO[C@H]1C[C@@H]2CC[C@@H](C)[C@@](O)(O2)C(=O)C(=O)N2CCCC[C@H]2C(=O)O[C@H]([C@H](C)C[C@@H]2CC[C@@H](OCCO)[C@H](OC)C2)CC(=O)[C@H](C)/C=C(\C)[C@@H](O)[C@@H](OC)C(=O)[C@H](C)C[C@H](C)/C=C/C=C/C=C/1C` [everolimus] as the compound, how does the “EC50 fold change of partner agent” value ([2]; 200 nM SRA141 pre-treatment 48 hrs compared to DMSO pre-treatment) read?
A: 3.3

Q: What about the “EC50 fold change of partner agent” value (MOLM-13 cells [3]) of the same compound?
A: 3.25

Q: How did the “synergy with SRA141” value (MOLM-13 cells [1]) turn out when `CC1(C)CCC(CN2CCN(c3ccc(C(=O)NS(=O)(=O)c4ccc(NCC5CCOCC5)c([N+](=O)[O-])c4)c(Oc4cnc5[nH]ccc5c4)c3)CC2)=C(c2ccc(Cl)cc2)C1` [ABT-199] was run?
A: strong synergies

Q: And the “Combination Index” value (MOLM-13; 0.1 μM ABT-199 with SRA141 at 0.12, 0.37, 1.10 and 3.30 μM, 72 hours)?
A: less than 1

Q: What about the “combination effect with SRA141” value (MOLM-13) of the same compound?
A: act synergistically

Q: Which results are given for `CC1=C(/C=C/C(C)=C/C=C/C(C)=C/C(=O)O)C(C)(C)CCC1` [Tretinoin]?
A: combination effect with SRA141 (MOLM-13): slight additive effects; combination effect with SRA141 (MV411): slight additive effects

Q: `COc1c(OCCCN2CCOCC2)ccc2c1N=C(NC(=O)c1cnc(N)nc1)N1CCN=C21` [Copanlisib] was tested. Which “synergy with SRA141” value (COLO-205 cells) did it give?
A: Strong synergies

Q: And the “combination effect with SRA141” value (MOLM-13)?
A: slight additive effects

Q: And the “combination effect with SRA141” value (Colo-205)?
A: slight additive effect

Q: And the “combination effect with SRA141” value (SW620)?
A: slight additive effects

Q: And the “combination effect with SRA141” value (MV411)?
A: slight additive effects

Q: `C=C(c1ccc(C(=O)O)cc1)c1cc2c(cc1C)C(C)(C)CCC2(C)C` [Bexarotene] was tested. Which “EC50 fold change of partner agent” value (MOLM-13 cells [3]) did it give?
A: 2.63

Q: And the “synergy with SRA141” value (MOLM-13 cells [1])?
A: strong synergies

Q: And the “combination effect with SRA141” value (MOLM-13)?
A: slight additive effects

Q: And the “combination effect with SRA141” value (Colo-205)?
A: antagonistic effect

Q: For `CC(=O)Nc1cccc(-n2c(=O)n(C3CC3)c(=O)c3c(Nc4ccc(I)cc4F)n(C)c(=O)c(C)c32)c1` [Trametinib], which “EC50 fold change of partner agent” value (MOLM-13 cells [3]) is on record?
A: 2.63

Q: How did the “EC50 fold change of partner agent” value ([2]; 1 μM SRA141 pre-treatment 48 hrs compared to DMSO pre-treatment) turn out when `C[C@@]1(CO)[C@H](O)CC[C@@]2(C)[C@H]1CC[C@H]1C[C@@H]3C[C@@]12CC[C@]3(O)CO` [aphidicolin] was run?
A: 4.60

Q: Which results are given for `Nc1ccn([C@@H]2O[C@H](CO)[C@@H](O)[C@@H]2O)c(=O)n1` [Cytarabine, cytosine arabinoside, reference compound]?
A: IC50 (EOL-1; Homo sapiens, EOL1): 2 nM; IC50 (MV-4-11; Homo sapiens, MV4-11): 50 nM; IC50 (Molm-16; MOLM16): 70 nM; IC50 (AM5512): 8890 nM; IC50 (AM7440): 270 nM; primary AML samples responding with a Therapeutic Index [(Primary AML IC50)÷(BMNC control IC50)] (AML-blast progenitors; 9 primary AML samples): 2 out of 9; IC50 (AML-blast progenitors; AML810 censored, read-out: mean IC50, AML samples): ~4 nM; IC50 (AML-blast progenitors; AML-blast progenitor 180, read-out: IC50): 3.6 nM; IC50 (AML-blast progenitors; AML-blast progenitor 190, read-out: IC50): 6.1 nM; IC50 (AML-blast progenitors; AML-blast progenitor 200, read-out: IC50): 2.8 nM; IC50 (AML-blast progenitors; AML-blast progenitor 250, read-out: IC50): 2.2 nM; IC50 (AML-blast progenitors; AML-blast progenitor 260, read-out: IC50): 3 nM; IC50 (AML-blast progenitors; AML-blast progenitor 717, read-out: IC50): 3.8 nM; IC50 (AML-blast progenitors; AML-blast progenitor 810 (sample censored), read-out: IC50): 9.6 nM; IC50 (AML-blast progenitors; AML-blast progenitor 915, read-out: IC50): 8.1 nM; IC50 (AML-blast progenitors; AML-blast progenitor 917, read-out: IC50): 5.7 nM; IC50 (AML-blast progenitors; with AML 810, read-out: Mean AML-blast progenitor IC50 (with AML 810)): 5 ± 2.6 nM; IC50 (AML-blast progenitors; without AML 810, read-out: Mean AML-blast progenitor IC50 (without AML 810)): 4.4 ± 2 nM; IC50 ([4]; Normal bone marrow 111, read-out: IC50): 4.8 nM; IC50 ([4]; Normal bone marrow 525 (first line), read-out: IC50): 3.7 nM; IC50 ([4]; Normal bone marrow 525 (second line), read-out: IC50): 3.8 nM; IC50 ([4]; mean of 3 samples, read-out: Mean normal bone marrow IC50): 4.1 ± 0.6 nM; IC50 ([4]; read-out: mean IC50, normal bone marrow preparations): ~4 nM

Q: How did the IC50 (EOL-1) turn out when `N.N.[Cl][Pt][Cl]` [Cisplatin] was run?
A: 640 nM

Q: What about the IC50 (MV-4-11) of the same compound?
A: 620 nM

Q: What about the IC50 (Molm-16) of the same compound?
A: 380 nM

Q: And the IC50 (AM5512)?
A: 11900 nM

Q: And the IC50 (AM7440)?
A: 1340 nM

Q: And the IC50 (AM7577)?
A: 4180 nM
